US20240199663A1, “Cyclopolyphosphazenes, Related Methods of Preparation and Methods of Use” (University of Saskatchewan, priority 2021, published 2024)

Tests used:
antigen-specific IgG2a = assay: Vaccination in mice with ovalbumin as an antigen, serum IgG2a ELISA; type: in vivo, Balb/c mice; details: triple adjuvant composition (10 μg polyphosphazene: 20 μg IDR-1002: 10 μg Poly(I:C)) with Ova 50 μg or 1 μg, intramuscular, after two immunizations (Week 8), FIGS. 3 and 5
Experimental: (§1) To assess the adjuvant activity of the cyclopolyphosphazene 37, four in vivo studies were conducted with intramuscular administration of an ovalbumin (Ova) vaccine in mice. In the first two studies, the Ova vaccine was either formulated with no adjuvant or with a triple adjuvant (TriAdj). The first two studies compared three different triple adjuvants, all comprising Poly(I:C), IDR-1002 peptide and a polyphosphazene: either PCEP, 37 or 11. The third and fourth studies compared four different triple adjuvants, all comprising Poly(I:C), IDR-1002 peptide and a polyphosphazene: either PCEP, compound 11, compound 37 or compound 39.
(§2) In all studies, mice were randomized to cages such that the various treatment groups were not together in the same cage. All groups received Ova antigen mixed with the adjuvant (or not) just prior to intramuscular administration. All the vaccines were formulated and injected in 50 μL (25 μ/leg). Mice were vaccinated at Day 0 and Day 28 (Week 4) with the same dose.
(§3) In all studies, serum was collected on days 0, 28 and 56 for antigen-specific IgG1 and IgG2a ELISAs. […] Plates were read with a Biorad iMark Microplate Reader™. Data were expressed as titres, which represent the dilution factor required to generate an absorbance reading three standard deviations above the average value of the negative control, e.g. serum from control mice receiving no vaccination. […]

antigen-specific IgG1 = assay: Vaccination in mice with ovalbumin as an antigen, serum IgG1 ELISA; type: in vivo, Balb/c mice; details: triple adjuvant composition (10 μg polyphosphazene: 20 μg IDR-1002: 10 μg Poly(I:C)) with Ova 50 μg or 1 μg, intramuscular, after two immunizations (Week 8), FIGS. 2 and 5
Experimental: as §1, §2, §3

[1] = test system: SipD-antigen-specific IgG; assay: Vaccination in chicken with SipD as an antigen, serum IgG ELISA; type: in vivo, Leghorn chicken; details: triple adjuvant composition (20 μg polyphosphazene: 40 μg IDR-1002: 20 μg Poly(I:C)) with 10 μg SipD, intramuscular, after two immunizations (Week 4), FIG. 1B
Experimental: To assess the adjuvant activity of cyclopolyphosphazene candidates, such as 37, 11 and 39, an in vivo study was conducted with intramuscular administration of a Salmonella typhimurium Cell invasion protein (SipD) vaccine in young chicken. Two-week-old Leghorn chicken were randomly divided into three single adjuvant groups, three triple adjuvant groups and one PBS-adjuvant control group (n=12/group). The single adjuvant groups contained 20 μg PCEP, 11 or 37 polyphosphazene. All triple adjuvants comprised Poly(I:C), IDR-1002 peptide and a polyphosphazene: either PCEP, 37 or 11.
All vaccines were formulated prior to administration and injected in 200 μL intramuscularly in the tail area. Chicken were vaccinated at Day 0 and Day 14 (Week 2) with the same dose. […]
Serum was collected on days 0, 14 and 28 for SipD-antigen-specific IgG ELISAs. […] Plates were read with a Molecular Devices SpectraMax Plus 384 Reader™. Data were expressed as titres, which represent the dilution factor required to generate an absorbance reading two standard deviations above the average value of the negative control, e.g. serum from control chicken receiving no vaccination.

CCCCCCCCCCCC(=O)NCCCCCCNC(=O)C(CCCCN)NC(=O)CCc1ccc(OP2(Oc3ccc(CCC(=O)NC(CCCCN)C(=O)NCCCCCCNC(=O)CCCCCCCCCCC)cc3)=NP(Oc3ccc(CCC(=O)NC(CCCCN)C(=O)NCCCCCCNC(=O)CCCCCCCCCCC)cc3)(Oc3ccc(CCC(=O)NC(CCCCN)C(=O)NCCCCCCNC(=O)CCCCCCCCCCC)cc3)=NP(Oc3ccc(CCC(=O)NC(CCCCN)C(=O)NCCCCCCNC(=O)CCCCCCCCCCC)cc3)(Oc3ccc(CCC(=O)NC(CCCCN)C(=O)NCCCCCCNC(=O)CCCCCCCCCCC)cc3)=N2)cc1 (stereo not drawn) [Compound 37, N,N′,N″,N′″,N″″,N′″″-(((2,2′,2″,22′″,2″″,2′″″-((3,3′,3″,3′″,3″″,3′″″-(((1,3,5,2l5,4l5,6l5-triazatriphosphinine-2,2,4,4,6,6-hexayl)hexakis(oxy))hexakis(benzene-4,1-diyl))hexakis(propanoyl))hexakis(azanediyl))hexakis(6-aminohexanoyl))hexakis(azanediyl))hexakis(hexane-6,1-diyl))hexadodecanamide]
significantly greater response: response in IgG2a relative to a vaccine without adjuvant (antigen-specific IgG2a) | response in IgG1 relative to a vaccine without adjuvant (antigen-specific IgG1) | antigen-specific IgG titres relative to a vaccine without adjuvant [1]
